Measurements from the CheMixHub viscosity set.
± gives the uncertainty stated by the source.

Test: xn = mol fraction of the nth substance listed

CC(=O)O + CC(C)=O
viscosity [mPa·s], 101 kPa
Conditions	293.15 K	298.15 K	303.15 K	313.15 K
x1 = 0.0996	–	0.3496 ± 0.0094	–	–
x1 = 0.13	0.3909 ± 0.01	–	0.3546 ± 0.0095	0.3238 ± 0.0087
x1 = 0.2035	–	0.4046 ± 0.011	–	–
x1 = 0.222	0.4389 ± 0.012	–	0.3976 ± 0.011	0.3607 ± 0.0097
x1 = 0.302	0.4916 ± 0.013	–	0.4411 ± 0.012	0.3993 ± 0.011
x1 = 0.3025	–	0.4636 ± 0.012	–	–
x1 = 0.4025	0.5632 ± 0.015	–	0.5015 ± 0.013	0.4518 ± 0.012
x1 = 0.4049	–	0.535 ± 0.014	–	–
x1 = 0.4986	–	0.6098 ± 0.016	–	–
x1 = 0.5066	0.6549 ± 0.017	–	0.5766 ± 0.015	0.5138 ± 0.014
x1 = 0.5973	–	0.6994 ± 0.018	–	–
x1 = 0.605	0.7515 ± 0.02	–	0.6562 ± 0.017	0.5817 ± 0.015
x1 = 0.6968	–	0.8024 ± 0.021	–	–
x1 = 0.6994	0.8612 ± 0.023	–	0.7482 ± 0.02	0.6564 ± 0.017
x1 = 0.8015	–	0.9213 ± 0.024	–	–
x1 = 0.805	0.9881 ± 0.026	–	0.8527 ± 0.023	0.7437 ± 0.02
x1 = 0.9011	1.103 ± 0.029	–	0.9472 ± 0.025	0.8218 ± 0.022
x1 = 0.9037	–	1.036 ± 0.027	–	–

ClCCl + CC(C)=O
viscosity [mPa·s], 101 kPa
Conditions	x2 = 0.0866	x2 = 0.186	x2 = 0.3088	x2 = 0.3898	x2 = 0.4934	x2 = 0.5941	x2 = 0.6959	x2 = 0.8096	x2 = 0.899
293.15 K	0.439 ± 0.005	0.436 ± 0.005	0.423 ± 0.005	0.412 ± 0.004	0.4 ± 0.004	0.388 ± 0.004	0.374 ± 0.004	0.358 ± 0.004	0.339 ± 0.004
298.15 K	0.422 ± 0.005	0.417 ± 0.005	0.405 ± 0.004	0.396 ± 0.004	0.383 ± 0.004	0.37 ± 0.004	0.357 ± 0.004	0.343 ± 0.004	0.327 ± 0.004

CCC(C)Br (stereo unspecified) + CC(C)CO
viscosity [mPa·s], 101.3 kPa
Conditions	298.15 K	313.15 K
x1 = 0.0474	2.895 ± 0.023	1.857 ± 0.018
x1 = 0.102	2.431 ± 0.019	1.596 ± 0.015
x1 = 0.203	1.813 ± 0.015	1.244 ± 0.011
x1 = 0.3032	1.407 ± 0.011	1.007 ± 0.0086
x1 = 0.4043	1.126 ± 0.009	0.8382 ± 0.0071
x1 = 0.5066	0.9316 ± 0.0075	0.7176 ± 0.006
x1 = 0.6053	0.7983 ± 0.0065	0.6315 ± 0.0053
x1 = 0.7043	0.7016 ± 0.0058	0.5696 ± 0.0049
x1 = 0.803	0.6311 ± 0.0053	0.5215 ± 0.0045
x1 = 0.8948	0.5854 ± 0.005	0.4887 ± 0.0043
x1 = 0.9318	0.5716 ± 0.0049	0.4796 ± 0.0043

CCNc1ccccc1 + CC(C)CO
viscosity [mPa·s], 101 kPa
Conditions	303.15 K	308.15 K
x1 = 0.0756	2.789 ± 0.026	2.414 ± 0.024
x1 = 0.1356	2.742 ± 0.026	2.38 ± 0.023
x1 = 0.1958	2.695 ± 0.025	2.348 ± 0.023
x1 = 0.2654	2.637 ± 0.024	2.307 ± 0.022
x1 = 0.3214	2.588 ± 0.024	2.27 ± 0.022
x1 = 0.3956	2.517 ± 0.023	2.215 ± 0.021
x1 = 0.4565	2.454 ± 0.022	2.16 ± 0.021
x1 = 0.5202	2.384 ± 0.022	2.106 ± 0.02
x1 = 0.6021	2.284 ± 0.02	2.029 ± 0.019
x1 = 0.6745	2.194 ± 0.019	1.956 ± 0.018
x1 = 0.7325	2.116 ± 0.019	1.889 ± 0.017
x1 = 0.8025	2.019 ± 0.018	1.811 ± 0.017
x1 = 0.8869	1.903 ± 0.017	1.714 ± 0.016

CC(=O)O + CC(C)O
viscosity [mPa·s], 101 kPa
Conditions	x1 = 0.00598	x1 = 0.02919	x1 = 0.04037	x1 = 0.0567	x1 = 0.1073	x1 = 0.1528	x1 = 0.1938	x1 = 0.2308
298.15 K	2.633 ± 0.53	2.564 ± 0.52	2.503 ± 0.51	2.435 ± 0.49	2.286 ± 0.46	2.221 ± 0.45	2.133 ± 0.43	2.058 ± 0.41
308.15 K	1.962 ± 0.4	1.906 ± 0.38	1.877 ± 0.38	1.843 ± 0.37	1.75 ± 0.35	1.696 ± 0.34	1.651 ± 0.33	1.621 ± 0.33
318.15 K	1.521 ± 0.31	1.491 ± 0.3	1.474 ± 0.3	1.454 ± 0.29	1.4 ± 0.28	1.363 ± 0.28	1.33 ± 0.27	1.306 ± 0.26

CCOC=O + CC(C)O
viscosity [mPa·s], 100 kPa
Conditions	x1 = 0.0814	x1 = 0.1589	x1 = 0.2351	x1 = 0.3413	x1 = 0.4351	x1 = 0.5587	x1 = 0.6507	x1 = 0.7349	x1 = 0.8498	x1 = 0.9394
293.15 K	1.77 ± 0.04	1.33 ± 0.03	1.06 ± 0.02	0.82 ± 0.02	0.68 ± 0.02	0.57 ± 0.01	0.52 ± 0.01	0.48 ± 0.01	0.44 ± 0.01	0.42 ± 0.01
298.15 K	1.53 ± 0.03	1.18 ± 0.03	0.95 ± 0.02	0.76 ± 0.02	0.64 ± 0.02	0.54 ± 0.01	0.49 ± 0.01	0.46 ± 0.01	0.42 ± 0.01	0.4 ± 0.01
303.15 K	1.35 ± 0.03	1.06 ± 0.02	0.87 ± 0.02	0.7 ± 0.02	0.59 ± 0.01	0.51 ± 0.01	0.46 ± 0.01	0.43 ± 0.01	0.4 ± 0.01	0.38 ± 0.01
308.15 K	1.19 ± 0.03	0.95 ± 0.02	0.79 ± 0.02	0.65 ± 0.02	0.56 ± 0.01	0.48 ± 0.01	0.44 ± 0.01	0.41 ± 0.01	0.38 ± 0.01	0.36 ± 0.01
313.15 K	1.05 ± 0.02	0.85 ± 0.02	0.71 ± 0.02	0.59 ± 0.01	0.52 ± 0.01	0.45 ± 0.01	0.41 ± 0.01	0.39 ± 0.01	0.36 ± 0.01	0.34 ± 0.01
318.15 K	0.92 ± 0.02	0.75 ± 0.02	0.64 ± 0.02	0.54 ± 0.01	0.48 ± 0.01	0.42 ± 0.01	0.39 ± 0.01	0.36 ± 0.01	0.34 ± 0.01	0.32 ± 0.01
323.15 K	0.81 ± 0.02	0.67 ± 0.02	0.57 ± 0.01	0.49 ± 0.01	0.44 ± 0.01	0.38 ± 0.01	0.36 ± 0.01	0.33 ± 0.01	0.31 ± 0.01	0.3 ± 0.01

ClCCl + CC(C)O
298.15 K, 101 kPa
Conditions	viscosity [mPa·s]
x2 = 0.05	0.425 ± 0.006
x2 = 0.0992	0.435 ± 0.006
x2 = 0.1	0.433 ± 0.006
x2 = 0.15	0.444 ± 0.006
x2 = 0.2	0.458 ± 0.006
x2 = 0.2021	0.457 ± 0.006
x2 = 0.25	0.474 ± 0.006
x2 = 0.299	0.491 ± 0.006
x2 = 0.3	0.494 ± 0.006
x2 = 0.35	0.518 ± 0.007
x2 = 0.3974	0.548 ± 0.006
x2 = 0.4	0.547 ± 0.007
x2 = 0.45	0.583 ± 0.007
x2 = 0.5	0.626 ± 0.007
x2 = 0.55	0.679 ± 0.007
x2 = 0.552	0.68 ± 0.007
x2 = 0.5957	0.74 ± 0.007
x2 = 0.6	0.744 ± 0.008
x2 = 0.65	0.823 ± 0.008
x2 = 0.6514	0.825 ± 0.008
x2 = 0.7	0.917 ± 0.009
x2 = 0.75	1.031 ± 0.009
x2 = 0.8	1.167 ± 0.01
x2 = 0.8003	1.16 ± 0.009
x2 = 0.85	1.327 ± 0.011
x2 = 0.8515	1.321 ± 0.01
x2 = 0.897	1.515 ± 0.012
x2 = 0.9	1.516 ± 0.012
x2 = 0.924	1.619 ± 0.012
x2 = 0.9482	1.742 ± 0.013
x2 = 0.95	1.738 ± 0.014
x2 = 0.975	1.912 ± 0.014

CCCCCCCCCCCCCCCC(=O)O + CC(C)[C@@H]1CC[C@@H](C)C[C@H]1O
100 kPa, x1 = 0.15
Conditions	viscosity [mPa·s]
313.15 K	15.25 ± 0.14
318.15 K	11.78 ± 0.11
323.15 K	9.29 ± 0.09
